Measured values: US12336991B2, “Factor XIIA inhibitors” (UNIVERSITY OF LEEDS, priority 2018, dated 2025)

What was measured:
Format in all cases: biochemical
FXIIa = target: T1, FXIIa (Homo sapiens, UniProt P00748); assay: Determination of Factor XIIa inhibition, chromogenic substrate S-2302 assay; settings: human FXIIa alpha
T1 sequence (P00748 373-615 limits assumed): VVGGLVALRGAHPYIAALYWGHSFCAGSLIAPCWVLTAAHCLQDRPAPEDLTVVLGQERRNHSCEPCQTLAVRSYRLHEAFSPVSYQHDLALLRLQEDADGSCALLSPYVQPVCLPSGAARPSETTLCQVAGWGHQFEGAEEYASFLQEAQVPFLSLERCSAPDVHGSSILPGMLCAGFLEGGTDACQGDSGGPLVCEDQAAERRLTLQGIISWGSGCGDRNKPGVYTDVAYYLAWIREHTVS
T1 sequence (P00748 20-372 partner limits assumed): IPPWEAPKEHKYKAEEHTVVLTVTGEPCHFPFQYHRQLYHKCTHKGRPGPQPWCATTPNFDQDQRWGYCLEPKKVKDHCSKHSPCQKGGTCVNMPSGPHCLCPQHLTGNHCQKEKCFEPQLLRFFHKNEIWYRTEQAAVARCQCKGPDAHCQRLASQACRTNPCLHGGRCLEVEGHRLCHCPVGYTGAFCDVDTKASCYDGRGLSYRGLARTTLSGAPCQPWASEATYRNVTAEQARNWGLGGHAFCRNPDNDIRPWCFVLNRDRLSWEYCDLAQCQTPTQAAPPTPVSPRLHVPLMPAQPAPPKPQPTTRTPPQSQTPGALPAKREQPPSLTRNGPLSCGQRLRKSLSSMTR
Method in brief: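 FXIIa (10 nM) preincubated with compound 10 min at 37° C. in 50 mM Tris, 137 mM NaCl pH 7.4, 5% DMSO, top concentration 500 μM, then S-2302 added ([…]). Absorbance at 405 nm read kinetically for 3 h; IC50 from initial rates, converted to Ki by Cheng-Prusoff.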

thrombin = target: T2, thrombin (Homo sapiens, UniProt P00734); assay: Determination of selectivity: thrombin inhibition, chromogenic substrate GPR assay; settings: fold selectivity for FXIIa over thrombin
T2 construct: FXa (5 nM) and thrombin (5 nM)
Method in brief: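 Thrombin (5 nM) preincubated with compound 10 min at 37 °C in 50 mM Tris, 137 mM NaCl, pH 7.4, 5% DMSO, then GPR substrate ([…]) added. Absorbance at 405 nm read kinetically for 3 h; IC50 from initial rates, converted to Ki via Ki=IC50/(1+[S]/Km).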

FXa = FXa (Homo sapiens, UniProt P00742); assay: Determination of selectivity: FXa inhibition, chromogenic substrate S2765 assay; settings: fold selectivity for FXIIa over FXa
Method in brief: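 Human FXa (5 nM) preincubated with compound (top 500 μM, 5% DMSO) 10 min at 37 °C in 50 mM Tris, 137 mM NaCl pH 7.4, then S2765 ([…]) added; A405 kinetics over 3 h at 37 °C. IC50 from initial rates, converted to Ki via Cheng-Prusoff.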

FXa, sequence (P00742 235-488 limits assumed): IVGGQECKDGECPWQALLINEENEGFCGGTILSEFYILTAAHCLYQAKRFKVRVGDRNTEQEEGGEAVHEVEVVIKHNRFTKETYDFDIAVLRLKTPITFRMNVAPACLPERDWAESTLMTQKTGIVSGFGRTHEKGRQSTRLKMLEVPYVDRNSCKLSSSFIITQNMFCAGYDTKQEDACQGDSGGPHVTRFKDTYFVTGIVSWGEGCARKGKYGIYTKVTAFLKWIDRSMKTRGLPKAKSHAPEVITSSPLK
FXa, sequence (P00742 41-179 partner limits assumed): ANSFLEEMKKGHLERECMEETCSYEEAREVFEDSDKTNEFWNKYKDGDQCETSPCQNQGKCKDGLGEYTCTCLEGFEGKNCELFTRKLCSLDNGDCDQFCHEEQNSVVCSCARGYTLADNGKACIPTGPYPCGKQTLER

SMILES	Ki (FXIIa) [nM]	Thrombin (human)/FXIIa alpha (human) (thrombin)	FXa (human)/FXIIa alpha (human) (FXa)
Cn1nnc2cc(CNC(=O)[C@@H]3C[C@H](NCc4ccccc4)CN3C(=O)[C@H](N)CCc3ccccc3)ccc21 [Example M05158]	> 2000	++ (fold selectivity value of 10 to 100)	∘∘
COc1ccc(C[C@@H]2C[C@@H](C(=O)NCc3ccc4c(c3)nnn4C)N(C(=O)[C@H]3CC(c4ccnn4C)CN3)C2)cc1 (stereo partly drawn) [Example M05376]	> 2000	++ (fold selectivity value of 10 to 100)	∘∘
Cn1nnc2cc(CNC(=O)[C@@H]3C[C@@H](Cc4cccc5c4CCO5)CN3C(=O)[C@H]3C[C@@H](c4ccccc4)CN3)ccc21 [Example M05371]	> 2000	++ (fold selectivity value of 10 to 100)	∘∘
COc1ccc(C[C@@H]2C[C@@H](C(=O)NCc3cc4cnccc4[nH]3)N(C(=O)[C@H]3C[C@@H](c4cnn(C)c4)CN3)C2)cc1 [Example M00959]	< 200	+++ (fold selectivity values greater than 100)	∘∘∘
COc1ccc(C[C@@H]2C[C@@H](C(=O)NCc3ccc4c(c3)nnn4C)N(C(=O)[C@H](N)CCc3ccccc3)C2)cc1 [Example M05302]	200 to 2000	+++ (fold selectivity values greater than 100)	∘∘∘
Cn1nnc2cc(CNC(=O)[C@@H]3C[C@@H](Cc4ccc(F)cc4F)CN3C(=O)[C@H](N)CCC(=O)N3CCCC3)ccc21 [Example M05235]	< 200	+++ (fold selectivity values greater than 100)	∘∘∘
COc1ccc(C[C@@H]2C[C@@H](C(=O)NCc3ccc4c(c3)nnn4C)N(C(=O)[C@H](N)CCC(=O)N3C4CCC3CNC4)C2)cc1 [Example M05420]	< 200	+++ (fold selectivity values greater than 100)	∘∘∘
COc1ccc(C[C@@H]2C[C@@H](C(=O)NCc3cc4ccncc4o3)N(C(=O)[C@H](N)CCC(=O)N3CCCC3)C2)cc1 [Example M05465]	200 to 2000	+++ (fold selectivity values greater than 100)	∘∘∘
Cn1cc(-c2cccc(C[C@@H]3C[C@@H](C(=O)NCc4ccc5c(c4)nnn5C)N(C(=O)[C@H](N)CCC(=O)N4CCCC4)C3)c2)cn1 [Example M05330]	200 to 2000	+++ (fold selectivity values greater than 100)	∘∘∘
Cn1nc(Cl)c2cc(CNC(=O)[C@@H]3C[C@@H](Cc4ccncc4)CN3C(=O)[C@H](N)CCC(=O)N3CCCC3)ccc21 [Example M05241]	< 200	++ (fold selectivity value of 10 to 100)	∘∘∘
COc1ccc(C[C@@H]2C[C@@H](C(=O)NCc3ccc4c(c3)nnn4C)N(C(=O)C3NCCc4cc(OC)ccc43)C2)cc1 (stereo partly drawn) [Example M05442]	200 to 2000	+++ (fold selectivity values greater than 100)	∘∘∘
COc1cc(CNC(=O)[C@@H]2CCCN2C(=O)[C@H](N)CCc2ccccc2)cnc1CN [Example M05053]	> 2000	+ (fold selectivity values less than 10)	∘∘
COc1ccc(C[C@@H]2C[C@@H](C(=O)NCc3ccc4c(c3)nnn4C)N(C(=O)[C@H]3C[C@@H](c4ncccn4)CN3)C2)cc1 [Example M05387]	200 to 2000	+++ (fold selectivity values greater than 100)	∘∘∘
COc1ccc(C[C@@H]2C[C@@H](C(=O)NCc3ccc4c(c3)c(C)nn4C)N(C(=O)[C@H](N)CCC(=O)N3CCCC3)C2)cc1 [Example M05447]	200 to 2000	+++ (fold selectivity values greater than 100)	∘∘∘
Cn1nnc2cc(CNC(=O)[C@@H]3C[C@H](N)CN3C(=O)[C@H](N)CCc3ccccc3)ccc21 [Example M05143]	> 2000	++ (fold selectivity value of 10 to 100)	∘∘
COc1ccc(C[C@@H]2C[C@@H](C(=O)NCc3ccc4c(c3)nnn4C)N(C(=O)[C@H]3C[C@@H](c4ccncc4)CN3)C2)cc1 [Example M05353]	> 2000	++ (fold selectivity value of 10 to 100)	∘∘
COc1ccc(C[C@@H]2C[C@@H](C(=O)NCc3ccc4c(c3)nnn4C)N(C(=O)[C@H]3CC(c4ccccc4F)CN3)C2)cc1 (stereo partly drawn) [Example M05377]	200 to 2000	+++ (fold selectivity values greater than 100)	∘∘∘
COc1ccc(C[C@@H]2C[C@@H](C(=O)NCc3ccc4c(c3)nnn4C)N(C(=O)[C@H]3C[C@@H](c4ccccc4)CN3)C2)cc1Cl [Example M05339]	200 to 2000	+++ (fold selectivity values greater than 100)	∘∘∘
O=C(NCc1cc2cnccc2[nH]1)[C@@H]1C[C@@H](Cc2ccc(C(F)(F)F)cc2)CN1C(=O)C1NCCc2cc(Cl)ccc21 (stereo partly drawn) [Example M00970]	200 to 2000	++ (fold selectivity value of 10 to 100)	∘∘∘
Cn1nnc2cc(CNC(=O)[C@@H]3C[C@H](NCc4ccc(Cl)cc4)CN3C(=O)[C@H](N)CCc3ccccc3)ccc21 [Example M05160]	> 2000	++ (fold selectivity value of 10 to 100)	∘∘
Cn1nnc2cc(CNC(=O)[C@@H]3C[C@@H](c4ccccc4)CN3C(=O)[C@H](N)CCC(=O)N3CCCC3)ccc21 [Example M05155]	200 to 2000	+++ (fold selectivity values greater than 100)	∘∘∘
Cc1nn(C)c2ccc(CNC(=O)[C@@H]3C[C@@H](Cc4ccncc4)CN3C(=O)[C@H](N)CCC(=O)N3CCCC3)cc12 [Example M05278]	200 to 2000	++ (fold selectivity value of 10 to 100)	∘∘∘
NCc1ccc(CNC(=O)[C@@H]2CCCN2C(=O)[C@H](N)CCC(=O)N2CC=CC2)cc1 [Example M00922]	> 2000	+ (fold selectivity values less than 10)	∘∘
